Data reported in ChEMBL document CHEMBL1134401, “Property-based design: optimization of drug absorption and pharmacokinetics” (J Med Chem, 2001).

Assays:
[1] = Partition coefficient (logD); conditions: octanol/water
[2] = Volume of distribution of the compound; conditions: in vivo
[3] = Plasma clearance of the compound
[4] = Half life was measured as time taken to decrease half of its initial concentration

SMILES	logD [1]	Vd [2]	clearance [3]	half-life [4]
CCOC(=O)C1=C(C)NC(C)=C(C(=O)OC)C1c1cccc(Cl)c1Cl (stereo unspecified) [FELODIPINE]	4.8			
CCOC(=O)C1=C(COCCN)NC(C)=C(C(=O)OC)C1c1ccccc1Cl (stereo unspecified) [AMLODIPINE]	1.8			
CO[C@H]1/C=C/O[C@@]2(C)Oc3c(C)c(O)c4c(O)c(c(/C=N/N5CCN(C)CC5)c(O)c4c3C2=O)NC(=O)/C(C)=C\C=C\[C@H](C)[C@H](O)[C@@H](C)[C@@H](O)[C@@H](C)[C@H](OC(C)=O)[C@@H]1C [RIFAMPIN]		8.8 L/kg	1.92 L/h/kg	
CCOC(=O)C1=C(C)NC(C)=C(C(=O)OC)C1c1cccc([N+](=O)[O-])c1 (stereo unspecified) [NITRENDIPINE]	4.2	3.8 L/kg	1.26 L/h/kg	4 h
CO[C@H]1/C=C/O[C@@]2(C)Oc3c(C)c(O)c4c(c3C2=O)C2=NC3(CCN(CC(C)C)CC3)NC2=C(NC(=O)/C(C)=C\C=C\[C@H](C)[C@H](O)[C@@H](C)[C@@H](O)[C@@H](C)[C@H](OC(C)=O)[C@@H]1C)C4=O [RIFABUTIN]		266 L/kg	4.8 L/h/kg	45 h
CO[C@H]1/C=C/O[C@@]2(C)Oc3c(C)c(O)c4c(O)c(cc(O)c4c3C2=O)NC(=O)/C(C)=C\C=C\[C@H](C)[C@H](O)[C@@H](C)[C@@H](O)[C@@H](C)[C@H](OC(C)=O)[C@@H]1C [RIFAMYCIN]		1.2 L/kg	4.8 L/h/kg	0.33 h
COC(=O)C1=C(C)NC(C)=C(C(=O)OC)C1c1ccccc1[N+](=O)[O-] [NIFEDIPINE]		1 L/kg		1.9 h
